Results as given in ChEMBL document CHEMBL1156481, “Enzymatic therapeutic index of acyclovir. Viral versus human polymerase gamma specificity” (J Biol Chem, 2007).

Assays:
Human alphaherpesvirus 1 [1] = assay: Ratio of polymerization constant K to Kd for exonuclase deficient HSV1 DNA polymerase UL42 D368A mutant
Human alphaherpesvirus 1 [2] = assay: Polymerizing activity of exonuclase deficient HSV1 DNA polymerase UL42 D368A mutant assessed as rate of nucleotide incorporation by pre-steady state single turnover assay
[3] = tested on: T1, DNA polymerase subunit gamma-1 (Homo sapiens), P54098 [E200A]; assay: Ratio of polymerization constant K to Kd for human recombinant DNA polymerase gamma E200A mutant
T1 sequence (whole entry): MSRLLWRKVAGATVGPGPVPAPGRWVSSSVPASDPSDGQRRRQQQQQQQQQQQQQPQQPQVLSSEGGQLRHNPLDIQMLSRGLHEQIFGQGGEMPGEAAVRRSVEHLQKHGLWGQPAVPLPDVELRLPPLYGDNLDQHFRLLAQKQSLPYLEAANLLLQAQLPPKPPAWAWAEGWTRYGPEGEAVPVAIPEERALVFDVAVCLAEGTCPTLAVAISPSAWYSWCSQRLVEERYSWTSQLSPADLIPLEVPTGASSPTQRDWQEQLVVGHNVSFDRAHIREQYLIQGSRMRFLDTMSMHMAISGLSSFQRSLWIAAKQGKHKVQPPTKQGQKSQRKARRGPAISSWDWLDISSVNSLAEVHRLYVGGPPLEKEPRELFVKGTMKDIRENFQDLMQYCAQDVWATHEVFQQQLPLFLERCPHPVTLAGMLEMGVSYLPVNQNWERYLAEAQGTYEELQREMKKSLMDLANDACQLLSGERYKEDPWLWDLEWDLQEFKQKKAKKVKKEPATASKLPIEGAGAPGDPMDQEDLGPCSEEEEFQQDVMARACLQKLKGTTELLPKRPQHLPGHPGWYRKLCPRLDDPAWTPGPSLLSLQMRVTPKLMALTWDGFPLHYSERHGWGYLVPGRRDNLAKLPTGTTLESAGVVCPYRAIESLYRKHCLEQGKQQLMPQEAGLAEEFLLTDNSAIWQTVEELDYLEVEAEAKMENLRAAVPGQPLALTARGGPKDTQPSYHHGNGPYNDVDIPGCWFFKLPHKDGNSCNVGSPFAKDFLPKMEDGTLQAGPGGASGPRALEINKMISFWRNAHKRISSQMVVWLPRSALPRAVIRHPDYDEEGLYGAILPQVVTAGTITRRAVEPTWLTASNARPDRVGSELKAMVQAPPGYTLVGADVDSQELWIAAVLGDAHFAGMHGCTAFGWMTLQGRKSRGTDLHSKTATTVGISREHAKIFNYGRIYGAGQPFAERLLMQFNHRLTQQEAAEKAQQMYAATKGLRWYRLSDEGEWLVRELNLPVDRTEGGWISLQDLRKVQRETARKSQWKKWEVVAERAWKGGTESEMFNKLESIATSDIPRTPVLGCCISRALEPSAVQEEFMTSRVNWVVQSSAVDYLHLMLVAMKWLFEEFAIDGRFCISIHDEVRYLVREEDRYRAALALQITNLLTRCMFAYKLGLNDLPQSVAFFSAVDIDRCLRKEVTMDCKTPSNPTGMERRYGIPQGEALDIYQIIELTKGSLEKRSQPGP

[4] = target: DNA polymerase subunit gamma-1 (Homo sapiens, UniProt P54098, E200A); assay: Binding affinity to exonuclase deficient human recombinant DNA polymerase gamma E200A mutant
[5] = Binding affinity to exonuclase deficient HSV1 DNA polymerase UL42 D368A mutant; parameters: species or system Human alphaherpesvirus 1
[6] = tested on: T1, DNA polymerase subunit gamma-1 (Homo sapiens), P54098 [E200A]; assay: Polymerizing activity of exonuclase deficient human recombinant DNA polymerase gamma E200A mutant assessed as rate of nucleotide incorporation by pre-steady state single nucleotide incorporation assay
Human alphaherpesvirus 1 [7] = assay: Activity of wild type HSV1 DNA polymerase UL42 assessed as rate of excision of compound from correctly paired DNA primer during fast phase of excision in presence of 100 uM dNTPs
Homo sapiens [8] = organism: Homo sapiens; assay: Activity of human wild type DNA polymerase gamma assessed as amplitude of excision of compound from correctly paired DNA primer during fast phase of excision in presence of 100 uM dNTPs
Homo sapiens [9] = organism: Homo sapiens; assay: Activity of human wild type DNA polymerase gamma assessed as rate of excision of compound from correctly paired DNA primer during fast phase of excision
Homo sapiens [10] = organism: Homo sapiens; assay: Activity of human wild-type DNA polymerase gamma assessed as rate of excision of compound from correctly paired DNA primer during fast phase of excision in presence of 100 uM dNTPs
Homo sapiens [11] = organism: Homo sapiens; assay: Activity of human wild type DNA polymerase gamma assessed as amplitude of excision of compound from 3'-frayed DNA primer with 8 mispaired bases at 3' end during fast phase of excision
Homo sapiens [12] = organism: Homo sapiens; assay: Activity of human wild type DNA polymerase gamma assessed as rate of excision of compound from 3'-frayed DNA primer with 8 mispaired bases at 3' end during fast phase of excision in presence of 100 uM dNTPs
Human alphaherpesvirus 1 [13] = assay: Activity of wild type HSV1 DNA polymerase UL42 assessed as amplitude of excision of compound from 3'-frayed DNA primer with 8 mispaired bases at 3' end during fast phase of excision
Homo sapiens [14] = organism: Homo sapiens; assay: Activity of human wild type DNA polymerase gamma assessed as rate of excision of compound from 3'-frayed DNA primer with 8 mispaired bases at 3' end during fast phase of excision
Homo sapiens [15] = organism: Homo sapiens; assay: Activity of human wild type DNA polymerase gamma assessed as amplitude of excision of compound from correctly paired DNA primer during fast phase of excision
Homo sapiens [16] = organism: Homo sapiens; assay: Activity of human wild type DNA polymerase gamma assessed as amplitude of excision of compound from 3'-frayed DNA primer with 8 mispaired bases at 3' end during fast phase of excision in presence of 100 uM dNTPs
Human alphaherpesvirus 1 [17] = assay: Activity of wild type HSV1 DNA polymerase UL42 assessed as amplitude of excision of compound from correctly paired DNA primer during fast phase of excision
Human alphaherpesvirus 1 [18] = assay: Activity of wild type HSV1 DNA polymerase UL42 assessed as amplitude of excision of compound from 3'-frayed DNA primer with 8 mispaired bases at 3' end during fast phase of excision in presence of 100 uM dNTPs
Human alphaherpesvirus 1 [19] = assay: Activity of wild type HSV1 DNA polymerase UL42 assessed as rate of excision of compound from 3'-frayed DNA primer with 8 mispaired bases at 3' end during fast phase of excision in presence of 100 uM dNTPs
Human alphaherpesvirus 1 [20] = assay: Activity of wild type HSV1 DNA polymerase UL42 assessed as rate of excision of compound from correctly paired DNA primer during fast phase of excision
Human alphaherpesvirus 1 [21] = assay: Activity of wild type HSV1 DNA […] UL42 assessed as amplitude of excision of compound from correctly paired DNA primer during fast phase of excision in presence of 100 uM dNTPs
Human alphaherpesvirus 1 [22] = assay: Activity of wild type HSV1 DNA polymerase UL42 assessed as rate of excision of compound from 3'-frayed DNA primer with 8 mispaired bases at 3' end during fast phase of excision
Homo sapiens [23] = organism: Homo sapiens; assay: Activity of human wild type DNA polymerase gamma assessed as rate of excision of compound from correctly paired DNA primer during slow phase of excision
Human alphaherpesvirus 1 [24] = assay: Activity of wild type HSV1 DNA polymerase UL42 assessed as rate of excision of compound from correctly paired DNA primer during slow phase of excision
Human alphaherpesvirus 1 [25] = assay: Activity of wild type HSV1 DNA polymerase UL42 assessed as rate of excision of compound from 3'-frayed DNA primer with 8 mispaired bases at 3' end during slow phase of excision
Homo sapiens [26] = organism: Homo sapiens; assay: Activity of human wild-type DNA polymerase gamma assessed as amplitude of excision of compound from 3'-frayed DNA primer with 8 mispaired bases at 3' end during slow phase of excision
Homo sapiens [27] = organism: Homo sapiens; assay: Activity of human wild-type DNA polymerase gamma assessed as rate of excision of compound from 3'-frayed DNA primer with 8 mispaired bases at 3' end during slow phase of excision
Human alphaherpesvirus 1 [28] = assay: Activity of wild type HSV1 DNA polymerase UL42 assessed as amplitude of excision of compound from 3'-frayed DNA primer with 8 mispaired bases at 3' end during slow phase of excision
Homo sapiens [29] = organism: Homo sapiens; assay: Activity of human wild type DNA polymerase gamma assessed as amplitude of excision of compound from correctly paired DNA primer during slow phase of excision
Human alphaherpesvirus 1 [30] = assay: Activity of wild type HSV1 DNA polymerase UL42 assessed as amplitude of excision of compound from correctly paired DNA primer during slow phase of excision

| Activity (Homo sapiens [9]) | Activity (Homo sapiens [11]) | Activity (Human alphaherpesvirus 1 [13]) | Activity (Homo sapiens [14]) | Activity (Homo sapiens [15]) | Activity (Human alphaherpesvirus 1 [17]) | Activity (Human alphaherpesvirus 1 [20]) | Activity (Human alphaherpesvirus 1 [22]) | SMILES | Ratio (Human alphaherpesvirus 1 [1]) | K (Human alphaherpesvirus 1 [2]) | Ratio [3] | Kd [4] | Kd [5] | K [6] | other results |
| --- | --- | --- | --- | --- | --- | --- | --- | --- | --- | --- | --- | --- | --- | --- | --- |
| – | – | – | – | – | – | – | – | Cc1cn([C@H]2C[C@H](O)[C@@H](COP(=O)(O)OP(=O)(O)OP(=O)(O)O)O2)c(=O)[nH]c1=O | 45 µM⁻¹ s⁻¹ | 137 s⁻¹ | – | – | – | – | – |
| – | – | – | – | – | – | – | – | Nc1nc2c(ncn2[C@H]2C[C@H](O)[C@@H](COP(=O)(O)OP(=O)(O)OP(=O)(O)O)O2)c(=O)[nH]1 [DEOXYGUANOSINE TRIPHOSPHATE] | 80 µM⁻¹ s⁻¹ | 640 s⁻¹ | 45 µM⁻¹ s⁻¹ | 0.8 µM | 0.8 µM | 37 s⁻¹ | – |
| – | – | – | – | – | – | – | – | Nc1nc2c(ncn2COCCOP(=O)(O)OP(=O)(O)OP(=O)(O)O)c(=O)[nH]1 [ACYCLOVIR TRIPHOSPHATE] | 1.7 µM⁻¹ s⁻¹ | 10.1 s⁻¹ | 0.17 µM⁻¹ s⁻¹ | 6 µM | 6 µM | 1.03 s⁻¹ | – |
| 2.1 ×10⁻³ /s | 94 nM | 90 nM | 1.3 ×10⁻³ /s | 97 nM | 86 nM | 5.1 ×10⁻⁴ /s | > 0.3 s⁻¹ | Nc1nc(=O)c2ncn(COCCOP(=O)(O)O)c2[nH]1 | – | – | – | – | – | – | Activity (Human alphaherpesvirus 1 [7]): 2 ×10⁻⁴ /s; Activity (Homo sapiens [8]): 91 nM; Activity (Homo sapiens [10]): 9.2 ×10⁻⁵ /s; Activity (Homo sapiens [12]): 3 ×10⁻⁴ /s; Activity (Homo sapiens [16]): 90 nM; Activity (Human alphaherpesvirus 1 [18]): 90 nM; Activity (Human alphaherpesvirus 1 [19]): > 0.3 s⁻¹; Activity (Human alphaherpesvirus 1 [21]): 85 nM |
| 0.45 s⁻¹ | 16 nM | 65 nM | 2.6 s⁻¹ | 16 nM | 11 nM | 12 s⁻¹ | 125 s⁻¹ | Nc1nc(O)c2ncn([C@H]3C[C@H](O)[C@@H](COP(=O)(O)O)O3)c2n1 | – | – | – | – | – | – | Activity (Homo sapiens [23]): 0.02 s⁻¹; Activity (Human alphaherpesvirus 1 [24]): 0.25 s⁻¹; Activity (Human alphaherpesvirus 1 [25]): 1.3 s⁻¹; Activity (Homo sapiens [26]): 27 nM; Activity (Homo sapiens [27]): 0.27 s⁻¹; Activity (Human alphaherpesvirus 1 [28]): 24 nM; Activity (Homo sapiens [29]): 74 nM; Activity (Human alphaherpesvirus 1 [30]): 77 nM |
